Where two headings read alike, the source gives them in different places. Where a SMILES comes first, the peptide text is derived from it. [ ]: non-standard residue; d: D form. The star is where a group is joined. DOTA = O=C(O)CN1CCN(CC(=O)O)CCN(CC(=O)*)CCN(CC(=O)O)CC1; EuK = O=C(O)CC[C@H](NC(=O)N[C@@H](CCCCN*)C(=O)O)C(=O)O; 2Nal = N[C@@H](Cc1ccc2ccccc2c1)C(=O)O; Trx = NC[C@H]1CC[C@H](C(=O)O)CC1
Assays:
PSMA = biological target: T1, PSMA (Homo sapiens, UniProt Q04609); experiment: competitive cell binding assay vs 68Ga-labeled PSMA-10 on LNCaP cells
T1 construct: host or cells: LNCaP cells
Method: (§1) PSMA^+ LNCaP cells (ATCC CRL-1740) were cultured in RPMI medium. Cells were grown at 37° C. in humidified air with 5% C02 and were harvested using trypsin-ethylenediaminetetraacetic acid.
(§2) The competitive cell binding assay and internalization experiments were performed according to Eder M et al. (2012), Bioconjug Chem 23(4):688.
Briefly, the cells (10^5 per well) were incubated with a 0.8 nM solution of ^68Ga-labeled radioligand [Glu-urea-Lys(Ahx)]2-HBED-CC (PSMA-10, precursor ordered from ABX, Radeberg, Germany) in the presence of 12 different concentrations of analyte (0-5000 nM, 100 μL/well). After incubation, the mixture was removed and the wells were washed 3 times with PBS using a multiscreen vacuum manifold (Millipore, Billerica, Mass.). Cell-bound radioactivity was measured using a gamma counter (Packard Cobra II, GMI, Minnesota, USA). The 50% inhibitory concentration (IC50) values were calculated by fitting the data using a nonlinear regression algorithm (GraphPad Software).

PSMA+ LNCaP cells = experiment: cell surface binding and internalization of radiolabeled compounds; assay type: cell-based; conditions: for Specific Cell Surface Binding / Specific Internalization / Cell Surface binding / Internalization: 68Ga-labeled
Method: as §1, §2
For internalization experiments, 10^5 cells per well were seeded in poly-L-lysine coated 24-well cell culture plates 24 h before incubation. After washing, the cells were incubated with 30 nM of the ^68Ga- or ^177Lu-radiolabeled compound for 45 min at 37° C. and at 4° C., respectively. Cellular uptake was terminated by washing 3 times with 1 mL of ice-cold PBS. To remove surface-bound radioactivity, cells were incubated twice with 0.5 mL glycine-HCl in PBS (50 mM, pH=2.8) for 5 min. The cells were washed with 1 mL of ice-cold PBS and lysed using 0.3 N NaOH (0.5 mL). The surface-bound and the internalized fractions were measured in a gamma counter. The cell uptake was calculated as percent of the initially added radioactivity bound to 10^5 cells [% ID/10^5 cells].

[1] = LNCaP cells, 0.8 nM 68Ga-PSMA-10 radioligand, read-out: Specific Binding Affinity IC50

T1 sequence (Q04609 whole entry): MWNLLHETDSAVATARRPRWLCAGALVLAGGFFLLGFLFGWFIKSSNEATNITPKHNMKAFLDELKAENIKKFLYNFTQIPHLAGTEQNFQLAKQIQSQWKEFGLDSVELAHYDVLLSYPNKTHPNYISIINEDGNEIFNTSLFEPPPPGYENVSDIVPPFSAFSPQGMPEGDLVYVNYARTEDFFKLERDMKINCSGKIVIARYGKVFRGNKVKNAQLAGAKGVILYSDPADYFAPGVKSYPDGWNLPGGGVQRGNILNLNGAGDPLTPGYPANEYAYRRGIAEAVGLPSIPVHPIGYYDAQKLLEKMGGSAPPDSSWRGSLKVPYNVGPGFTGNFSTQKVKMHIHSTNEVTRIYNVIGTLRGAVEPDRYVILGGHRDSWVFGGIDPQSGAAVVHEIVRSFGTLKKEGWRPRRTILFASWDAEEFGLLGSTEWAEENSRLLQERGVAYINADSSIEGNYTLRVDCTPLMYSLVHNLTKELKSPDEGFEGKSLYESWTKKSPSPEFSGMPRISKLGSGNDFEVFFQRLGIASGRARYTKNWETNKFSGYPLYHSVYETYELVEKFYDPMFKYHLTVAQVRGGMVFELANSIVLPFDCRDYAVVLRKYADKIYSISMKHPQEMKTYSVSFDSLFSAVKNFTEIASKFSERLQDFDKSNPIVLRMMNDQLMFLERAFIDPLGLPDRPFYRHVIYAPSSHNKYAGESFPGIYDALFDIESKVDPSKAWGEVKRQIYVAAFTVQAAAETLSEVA

Row | SMILES | IC50 (PSMA; [1]) [nM] | Specific Cell Surface Binding (PSMA+ LNCaP cells) [% ID/10^5 cells] | Specific Internalization (PSMA+ LNCaP cells) [% ID/10^5 cells] | Cell Surface binding (PSMA+ LNCaP cells; blocked) [% ID/10^5 cells] | Internalization (PSMA+ LNCaP cells; blocked) [% ID/10^5 cells] | Cell Surface binding (PSMA+ LNCaP cells; not blocked) [% ID/10^5 cells] | Internalization (PSMA+ LNCaP cells; not blocked) [% ID/10^5 cells] | IC50 (PSMA) [nM] | Specific cell surface bound (PSMA+ LNCaP cells; 177Lu-labeled, LNCaP cells) [% ID/10^5 cells] | Specific internalized (PSMA+ LNCaP cells; 177Lu-labeled, LNCaP cells) [% ID/10^5 cells]
1 | O=C(O)CC[C@H](NC(=O)N[C@@H](CCCCNC(=O)[C@H](Cc1ccc2ccccc2c1)NC(=O)[C@H]1CC[C@H](CNC(=O)[C@H](Cc2c[nH]cn2)NC(=O)[C@H](Cc2c[nH]cn2)NC(=O)[C@H](Cc2c[nH]cn2)NC(=O)CN2CCN(CC(=O)O)CCN(CC(=O)O)CCN(CC(=O)O)CC2)CC1)C(=O)O)C(=O)O [PS-7, DOTA-(H)3-CHx-2NaI-PSMA] ({DOTA}-HHH[Trx][2Nal]-EuK) | 22.7 ± 6.47 | 0.69 ± 0.11 | 0.47 ± 0.11 | 0.123 ± 0.015 | 0.207 ± 0.021 | 0.817 ± 0.047 | 0.673 ± 0.093 | – | – | –
2 | O=C(O)CC[C@H](NC(=O)N[C@@H](CCCCNC(=O)[C@H](Cc1ccc2ccccc2c1)NC(=O)[C@H]1CC[C@H](CNC(=O)[C@H](CCC(=O)O)NC(=O)[C@H](CCC(=O)O)NC(=O)[C@H](CCC(=O)O)NC(=O)CN2CCN(CC(=O)O)CCN(CC(=O)O)CCN(CC(=O)O)CC2)CC1)C(=O)O)C(=O)O [PS-5, DOTA-(E)3-CHx-2NaI-PSMA] ({DOTA}-EEE[Trx][2Nal]-EuK) | – | 0.94 ± 0.13 | 0.63 ± 0.28 | 0.055 ± 0.013 | 0.095 ± 0.026 | 1.003 ± 0.127 | 0.725 ± 0.269 | 10.4 ± 2.94 | – | –
3 | O=C(O)CCC(NC(=O)NC(CCCCNC(=O)C(Cc1ccc2ccccc2c1)NC(=O)C1CCC(CNC(=O)CN2CCN(CC(=O)O)CCN(CC(=O)O)CCN(CC(=O)O)CC2)CC1)C(=O)O)C(=O)O (centres unmarked) [PSMA-617, 2-[3-(1-Carboxy-5-{3-naphthalen-2-yl-2-[(4-{[2-(4,7,10-tris-carboxymethyl-1,4,7,10-tetraaza-cyclododec-1-yl)-acetylamino]-methyl}-cyclohexanecarbonyl)-amino]-propionylamino}-pentyl)-ureido]-pentanedioic acid, reference compound] | 21.8 ± 3.13 | 0.72 ± 0.06 | 0.39 ± 0.06 | 0.063 ± 0.014 | 0.117 ± 0.032 | 0.792 ± 0.134 | 0.504 ± 0.051 | – | 4.36 ± 1.33 | 2.94 ± 0.35
4 | O=C(O)CC[C@H](NC(=O)N[C@@H](CCCCNC(=O)[C@H](Cc1c[nH]cn1)NC(=O)[C@H](Cc1c[nH]cn1)NC(=O)[C@H](Cc1c[nH]cn1)NC(=O)[C@H](Cc1ccc2ccccc2c1)NC(=O)[C@H]1CC[C@H](CNC(=O)CN2CCN(CC(=O)O)CCN(CC(=O)O)CCN(CC(=O)O)CC2)CC1)C(=O)O)C(=O)O [PS-8, DOTA-CHx-2NaI-(H)3-PSMA] ({DOTA-Trx}-[2Nal]HHH-EuK) | 78.6 ± 44.1 | 0.90 ± 0.03 | 0.51 ± 0.05 | 0.038 ± 0.010 | 0.093 ± 0.033 | 0.945 ± 0.030 | 0.600 ± 0.066 | – | – | –
5 | O=C(O)CC[C@H](NC(=O)N[C@@H](CCCCNC(=O)[C@H](Cc1ccc2ccccc2c1)NC(=O)[C@H](Cc1c[nH]cn1)NC(=O)[C@H](Cc1c[nH]cn1)NC(=O)[C@H](Cc1c[nH]cn1)NC(=O)[C@H]1CC[C@H](CNC(=O)CN2CCN(CC(=O)O)CCN(CC(=O)O)CCN(CC(=O)O)CC2)CC1)C(=O)O)C(=O)O [PS10, DOTA-CHx-(H)3-2NaI-PSMA] ({DOTA-Trx}-HHH[2Nal]-EuK) | 54 ± 20.9 | 0.55 ± 0.08 | 0.44 ± 0.08 | 0.027 ± 0.006 | 0.083 ± 0.006 | 0.580 ± 0.046 | 0.523 ± 0.078 | – | – | –

The next lines start with results.

Row | IC50 (PSMA; [1]) [nM] | SMILES | Specific Cell Surface Binding (PSMA+ LNCaP cells) [% ID/10^5 cells] | Specific Internalization (PSMA+ LNCaP cells) [% ID/10^5 cells] | Cell Surface binding (PSMA+ LNCaP cells; blocked) [% ID/10^5 cells] | Internalization (PSMA+ LNCaP cells; blocked) [% ID/10^5 cells] | Cell Surface binding (PSMA+ LNCaP cells; not blocked) [% ID/10^5 cells] | Internalization (PSMA+ LNCaP cells; not blocked) [% ID/10^5 cells] | IC50 (PSMA) [nM] | Specific cell surface bound (PSMA+ LNCaP cells; 177Lu-labeled, LNCaP cells) [% ID/10^5 cells] | Specific internalized (PSMA+ LNCaP cells; 177Lu-labeled, LNCaP cells) [% ID/10^5 cells]
6 | 27.9 ± 6.93 | O=C(O)CC[C@H](NC(=O)N[C@@H](CCCCNC(=O)[C@H](Cc1ccc2ccccc2c1)NC(=O)[C@H]1CC[C@H](CNC(=O)[C@H](CCC(=O)O)NC(=O)[C@H](Cc2c[nH]cn2)NC(=O)[C@H](CCC(=O)O)NC(=O)[C@H](Cc2c[nH]cn2)NC(=O)[C@H](CCC(=O)O)NC(=O)[C@H](Cc2c[nH]cn2)NC(=O)CN2CCN(CC(=O)O)CCN(CC(=O)O)CCN(CC(=O)O)CC2)CC1)C(=O)O)C(=O)O [PS-4.2, DOTA-(HE)3-CHx-2NaI-PSMA] ({DOTA}-HEHEHE[Trx][2Nal]-EuK) | 1.35 ± 0.28 | 0.71 ± 0.28 | 0.080 ± 0.010 | 0.113 ± 0.023 | 1.437 ± 0.138 | 0.676 ± 0.070 | – | – | –
7 | 28.6 ± 8.42 | O=C(O)CC[C@H](NC(=O)N[C@@H](CCCCNC(=O)[C@H](CCC(=O)O)NC(=O)[C@H](CCC(=O)O)NC(=O)[C@H](CCC(=O)O)NC(=O)[C@H](Cc1ccc2ccccc2c1)NC(=O)[C@H]1CC[C@H](CNC(=O)CN2CCN(CC(=O)O)CCN(CC(=O)O)CCN(CC(=O)O)CC2)CC1)C(=O)O)C(=O)O [PS-6, DOTA-CHx-2NaI-(E)3-PSMA] ({DOTA-Trx}-[2Nal]EEE-EuK) | 0.71 ± 0.12 | 0.45 ± 0.12 | 0.050 ± 0.020 | 0.156 ± 0.023 | 0.767 ± 0.156 | 0.607 ± 0.136 | – | – | –
8 | 23.4 ± 9.7 | O=C(O)CC[C@H](NC(=O)N[C@@H](CCCCNC(=O)[C@H](Cc1ccc2ccccc2c1)NC(=O)[C@H](CCC(=O)O)NC(=O)[C@H](CCC(=O)O)NC(=O)[C@H](CCC(=O)O)NC(=O)[C@H]1CC[C@H](CNC(=O)CN2CCN(CC(=O)O)CCN(CC(=O)O)CCN(CC(=O)O)CC2)CC1)C(=O)O)C(=O)O [PS-9, DOTA-CHx-(E)3-2NaI-PSMA] ({DOTA-Trx}-EEE[2Nal]-EuK) | 0.59 ± 0.09 | 0.27 ± 0.07 | 0.060 ± 0.021 | 0.138 ± 0.046 | 0.650 ± 0.083 | 0.410 ± 0.090 | – | – | –
9 | 43.1 ± 9.63 | O=C(O)CC[C@H](NC(=O)N[C@@H](CCCCNC(=O)[C@H](Cc1ccc2ccccc2c1)NC(=O)[C@H](Cc1c[nH]cn1)NC(=O)[C@H](CCC(=O)O)NC(=O)[C@H](Cc1c[nH]cn1)NC(=O)[C@H](CCC(=O)O)NC(=O)[C@H](Cc1c[nH]cn1)NC(=O)[C@H](CCC(=O)O)NC(=O)[C@H]1CC[C@H](CNC(=O)CN2CCN(CC(=O)O)CCN(CC(=O)O)CCN(CC(=O)O)CC2)CC1)C(=O)O)C(=O)O [PS-3, DOTA-Chx-(EH)3-2NaI-PSMA] ({DOTA-Trx}-EHEHEH[2Nal]-EuK) | 0.84 ± 0.03 | 0.24 ± 0.02 | 0.183 ± 0.025 | 0.317 ± 0.025 | 1.023 ± 0.140 | 0.557 ± 0.042 | – | – | –
